# Values of other authors as cited in patent US7414057B2, “Piperazine urea derivatives as melanocortin-4 receptor agonists” (Merck & Co., Inc., priority 2002, dated 2008).
# Details: injected intramuscularly or subcutaneously to males with psychogenic erectile dysfunction
substance,measurement,value
Ac-Nle-c[Asp-His-DPhe-Arg-Trp-Lys]-NH2 [melanotan-II],response rate,75%
